The values that follow come from ChEMBL document CHEMBL6177997, “Design, Synthesis, and Evaluation of Novel ROCK Inhibitors for Glaucoma Treatment: Insights into In Vitro and In Vivo Efficacy and Safety” (J Med Chem, 2025).

Some results are limits rather than exact numbers.

Assay [1] addresses MAP kinase-interacting serine/threonine-protein kinase 1 (Homo sapiens, UniProt Q9BUB5). Description: Inhibition of MNK1 (unknown origin) at 5 uM preincubated for 10 mins followed by substrate addition and measured after 60 mins by ADP-glo kinase assay relative to control. Particulars: time 70.0 min. (In general: In ADP-Glo the light output rises with the ADP produced.)
The target of assay [2] is MAP kinase-interacting serine/threonine-protein kinase 2 (Homo sapiens) (UniProt Q9HBH9). Kind of assay: Inhibition of MNK2 (unknown origin) at 5 uM preincubated for 10 mins followed by substrate addition and measured after 60 mins by ADP-glo kinase assay relative to control. Particulars: time 70.0 min.
For assay [3], the target named is Rho-associated protein kinase 2 (Homo sapiens, UniProt O75116). Kind of assay: Inhibition of ROCK2 (unknown origin) incubated for 40 mins in presence of ATP by ADP-glo assay.
The target in assay [4] is Rho-associated protein kinase 1 (Homo sapiens, UniProt Q13464). Kind of assay: Inhibition of ROCK1 (unknown origin) incubated for 40 mins in presence of ATP by ADP-glo assay.
Chain of Rho-associated protein kinase 1 (Q13464 whole entry): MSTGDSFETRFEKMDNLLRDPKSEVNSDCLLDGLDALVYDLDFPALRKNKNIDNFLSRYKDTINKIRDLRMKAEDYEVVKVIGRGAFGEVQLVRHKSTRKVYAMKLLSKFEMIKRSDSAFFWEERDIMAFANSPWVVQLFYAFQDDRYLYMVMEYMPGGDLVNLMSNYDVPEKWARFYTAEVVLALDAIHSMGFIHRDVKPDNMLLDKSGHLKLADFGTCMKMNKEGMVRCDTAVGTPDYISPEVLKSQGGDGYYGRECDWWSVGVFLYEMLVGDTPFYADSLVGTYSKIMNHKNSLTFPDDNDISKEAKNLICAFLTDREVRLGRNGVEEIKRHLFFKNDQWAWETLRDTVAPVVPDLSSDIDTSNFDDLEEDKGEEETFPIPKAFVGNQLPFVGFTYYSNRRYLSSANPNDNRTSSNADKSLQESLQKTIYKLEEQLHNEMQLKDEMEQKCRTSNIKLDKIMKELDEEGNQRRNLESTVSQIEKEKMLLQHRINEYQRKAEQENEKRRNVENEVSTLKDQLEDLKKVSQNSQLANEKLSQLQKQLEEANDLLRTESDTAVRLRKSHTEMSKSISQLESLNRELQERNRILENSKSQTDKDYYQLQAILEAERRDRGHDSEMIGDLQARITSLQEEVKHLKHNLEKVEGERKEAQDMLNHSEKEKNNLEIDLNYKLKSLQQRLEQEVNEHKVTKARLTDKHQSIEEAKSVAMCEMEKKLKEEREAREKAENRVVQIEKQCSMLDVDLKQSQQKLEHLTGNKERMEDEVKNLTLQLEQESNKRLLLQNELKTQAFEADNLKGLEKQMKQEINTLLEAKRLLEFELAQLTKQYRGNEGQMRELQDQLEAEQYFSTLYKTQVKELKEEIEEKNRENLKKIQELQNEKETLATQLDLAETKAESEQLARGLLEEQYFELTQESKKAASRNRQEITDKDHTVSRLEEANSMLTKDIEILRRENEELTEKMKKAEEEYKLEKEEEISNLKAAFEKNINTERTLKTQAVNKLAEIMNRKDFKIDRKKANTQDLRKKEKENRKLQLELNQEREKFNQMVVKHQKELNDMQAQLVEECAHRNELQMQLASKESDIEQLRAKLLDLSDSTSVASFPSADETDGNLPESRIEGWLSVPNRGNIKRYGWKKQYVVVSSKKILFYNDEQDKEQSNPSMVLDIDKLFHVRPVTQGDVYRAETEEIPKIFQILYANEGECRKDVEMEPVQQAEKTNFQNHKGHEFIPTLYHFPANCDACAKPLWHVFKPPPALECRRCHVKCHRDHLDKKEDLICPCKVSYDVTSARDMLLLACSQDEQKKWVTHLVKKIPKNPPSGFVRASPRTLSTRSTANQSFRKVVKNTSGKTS

Chain of Rho-associated protein kinase 2 (O75116 whole entry): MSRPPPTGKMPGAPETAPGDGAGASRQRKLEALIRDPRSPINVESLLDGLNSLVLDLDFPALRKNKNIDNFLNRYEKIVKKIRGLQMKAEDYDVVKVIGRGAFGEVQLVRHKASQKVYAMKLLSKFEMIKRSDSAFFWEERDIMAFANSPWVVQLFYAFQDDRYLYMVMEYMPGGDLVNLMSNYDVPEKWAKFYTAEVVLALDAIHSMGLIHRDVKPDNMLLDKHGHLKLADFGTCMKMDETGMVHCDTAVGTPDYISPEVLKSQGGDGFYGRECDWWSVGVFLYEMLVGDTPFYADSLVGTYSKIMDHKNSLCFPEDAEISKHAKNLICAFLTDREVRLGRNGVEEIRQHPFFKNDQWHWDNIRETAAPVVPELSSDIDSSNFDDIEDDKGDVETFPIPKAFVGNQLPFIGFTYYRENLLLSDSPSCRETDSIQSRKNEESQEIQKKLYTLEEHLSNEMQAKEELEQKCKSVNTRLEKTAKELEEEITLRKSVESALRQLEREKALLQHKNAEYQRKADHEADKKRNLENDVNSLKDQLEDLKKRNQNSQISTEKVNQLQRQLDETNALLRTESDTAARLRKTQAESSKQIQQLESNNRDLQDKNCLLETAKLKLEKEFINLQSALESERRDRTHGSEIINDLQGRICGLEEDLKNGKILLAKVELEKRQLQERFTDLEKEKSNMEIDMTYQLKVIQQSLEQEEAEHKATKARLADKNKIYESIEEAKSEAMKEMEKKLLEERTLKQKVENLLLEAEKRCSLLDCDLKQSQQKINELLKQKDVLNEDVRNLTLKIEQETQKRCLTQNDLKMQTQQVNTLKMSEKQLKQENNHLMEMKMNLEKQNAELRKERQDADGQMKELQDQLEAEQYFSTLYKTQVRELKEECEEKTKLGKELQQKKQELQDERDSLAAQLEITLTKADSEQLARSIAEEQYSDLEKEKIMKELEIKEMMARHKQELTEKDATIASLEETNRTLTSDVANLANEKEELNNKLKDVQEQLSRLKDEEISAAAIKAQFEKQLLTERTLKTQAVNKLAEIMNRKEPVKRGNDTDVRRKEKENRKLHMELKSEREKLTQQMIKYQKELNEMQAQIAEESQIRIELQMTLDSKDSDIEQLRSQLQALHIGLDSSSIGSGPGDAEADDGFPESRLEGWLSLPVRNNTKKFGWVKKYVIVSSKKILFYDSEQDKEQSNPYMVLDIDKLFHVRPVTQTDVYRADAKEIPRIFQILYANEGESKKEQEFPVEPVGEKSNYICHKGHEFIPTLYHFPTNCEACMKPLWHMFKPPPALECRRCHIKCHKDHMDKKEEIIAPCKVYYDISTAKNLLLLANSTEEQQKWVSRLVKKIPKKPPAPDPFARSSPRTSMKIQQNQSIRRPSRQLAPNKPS
Chain of MAP kinase-interacting serine/threonine-protein kinase 2 (Homo sapiens) (Q9HBH9 whole entry, looked up): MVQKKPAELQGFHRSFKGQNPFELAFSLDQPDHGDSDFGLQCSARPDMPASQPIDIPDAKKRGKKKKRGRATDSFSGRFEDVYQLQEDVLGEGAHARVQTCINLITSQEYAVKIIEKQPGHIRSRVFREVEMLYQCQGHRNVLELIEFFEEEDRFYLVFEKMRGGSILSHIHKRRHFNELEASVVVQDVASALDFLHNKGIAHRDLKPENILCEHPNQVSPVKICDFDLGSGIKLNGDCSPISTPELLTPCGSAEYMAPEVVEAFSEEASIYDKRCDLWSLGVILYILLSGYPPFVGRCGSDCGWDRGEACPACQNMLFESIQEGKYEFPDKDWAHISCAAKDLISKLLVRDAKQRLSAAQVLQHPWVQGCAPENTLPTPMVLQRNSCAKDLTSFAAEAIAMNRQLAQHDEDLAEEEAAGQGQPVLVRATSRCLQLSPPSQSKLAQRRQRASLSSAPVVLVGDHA
Chain of MAP kinase-interacting serine/threonine-protein kinase 1 (Q9BUB5 whole entry, looked up): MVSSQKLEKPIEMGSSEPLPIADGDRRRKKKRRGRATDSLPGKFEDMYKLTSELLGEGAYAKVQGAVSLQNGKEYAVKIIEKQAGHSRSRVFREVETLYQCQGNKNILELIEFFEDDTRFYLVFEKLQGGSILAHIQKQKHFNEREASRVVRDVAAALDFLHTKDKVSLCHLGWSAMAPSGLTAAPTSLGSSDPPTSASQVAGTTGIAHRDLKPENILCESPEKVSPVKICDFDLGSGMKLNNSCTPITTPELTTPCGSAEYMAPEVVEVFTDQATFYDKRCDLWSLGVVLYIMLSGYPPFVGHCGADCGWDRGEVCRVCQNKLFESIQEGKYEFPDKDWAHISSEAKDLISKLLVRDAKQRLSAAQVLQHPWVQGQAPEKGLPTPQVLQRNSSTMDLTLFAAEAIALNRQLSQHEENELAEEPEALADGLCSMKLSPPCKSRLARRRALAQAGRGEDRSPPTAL

As a reminder, the inhibition is how much of the control response was suppressed. The low end stands for a response near the control, the high end for a response far below the control. The term IC50 denotes the concentration needed to halve the response being measured. As for `CC(=O)c1ccc(C(=O)N2CCC(c3cc(-c4ccnc5[nH]ccc45)[nH]n3)CC2)cc1`, the inhibition worked out at 71.7% in assay [1] and 60.9% in assay [2]. Also, the IC50 was 468 nM in assay [3] and 512 nM in assay [4].
For `COc1ccc(CN2CCC(c3cc(-c4ccnc5[nH]ccc45)[nH]n3)CC2)cc1OC`, the inhibition stood at 65.2% in assay [1] and 66.1% in assay [2]. In addition, the values for the IC50 in assay [3] and in assay [4] were 150 nM and 241 nM, respectively.
For `COc1ccc(CN2CCC(c3cc(-c4ccnc5[nH]ccc45)[nH]n3)CC2)cc1` the same measures were 61.5%, 67.4%, 118 nM and 183 nM.
Consider `Cc1cccc(CN2CCC(c3cc(-c4ccnc5[nH]ccc45)[nH]n3)CC2)c1`, for which the results for the inhibition in assay [1] and in assay [2] were 71.4% and 79.9%, respectively. Also, the IC50 in assay [3] and in assay [4] was over 5000 nM throughout.
As to `O=S(=O)(C1CC1)N1CCC(c2cc(-c3ccnc4[nH]ccc34)[nH]n2)CC1`, the inhibition in assay [1] is 63.6%; in assay [2] it was 73.4%. Also, the half-maximal inhibitory concentration (IC50) was 1070 nM in assay [3] and 489 nM in assay [4].
In the case of `O=C(C1CCC1)N1CCC(c2cc(-c3ccnc4[nH]ccc34)[nH]n2)CC1`, the inhibition in assay [1] was determined as 39.9%; in assay [2], 42.3%. Besides, the IC50 in assay [3] turned out to be 1050 nM; in assay [4] it was 846 nM.
For `COC(=O)c1ccc(C(=O)N2CCC(c3cc(-c4ccnc5[nH]ccc45)[nH]n3)CC2)cc1` the same measures were 77.1%, 53.4%, 401 nM and 777 nM.
For `COc1cccc(C(=O)N2CCC(c3cc(-c4ccnc5[nH]ccc45)[nH]n3)CC2)c1` the same measures were 52.5%, 34.3%, 577 nM and 805 nM.
For `c1ccc(Oc2cccc(CN3CCC(c4cc(-c5ccnc6[nH]ccc56)[nH]n4)CC3)c2)cc1`, the inhibition came out at 68.1% in assay [1] and 73.5% in assay [2]. The IC50 in assay [3] came to 1060 nM; in assay [4], 1340 nM.
For `N#CCN1CCC(c2cc(-c3ccnc4[nH]ccc34)[nH]n2)CC1` the same measures were 71.4%, 84.4%, 130 nM and 261 nM.
For `COc1cccc(CC(=O)N2CCC(c3cc(-c4ccnc5[nH]ccc45)[nH]n3)CC2)c1` the same measures were 41.6%, 62.7%, 305 nM and 350 nM.
For `c1ccc(CN2CCC(c3cc(-c4ccnc5[nH]ccc45)[nH]n3)CC2)cc1` the same measures were 73.2%, 82.4%, 172 nM and 197 nM.
As to `Fc1cccc(CN2CCC(c3cc(-c4ccnc5[nH]ccc45)[nH]n3)CC2)c1`, the inhibition in assay [1] was 69.9%; in assay [2], 76.8%. The half-inhibitory concentration (IC50) was determined as 338 nM in assay [3] and 295 nM in assay [4].
For `COC(=O)c1cccc(CN2CCC(c3cc(-c4ccnc5[nH]ccc45)[nH]n3)CC2)c1` the same measures were 61.6%, 70.9%, 390 nM and 570 nM.
With `O=C(c1ccc(F)c(F)c1)N1CCC(c2cc(-c3ccnc4[nH]ccc34)[nH]n2)CC1`, the inhibition was 67.2% in assay [1] and 53.3% in assay [2]. Further, the values for the IC50 in assay [3] and in assay [4] were 907 nM and 699 nM, respectively.
For `CC(=O)N1CCC(c2cc(-c3ccnc4[nH]ccc34)[nH]n2)CC1` the same measures were 41.8%, 58%, 980 nM and 1220 nM.
For `O=C(c1ccc(C(F)(F)F)cc1)N1CCC(c2cc(-c3ccnc4[nH]ccc34)[nH]n2)CC1` the same measures were 81.3%, 57.4%, 939 nM and 1160 nM.
`C=CC(=O)N1CCC(c2cc(-c3ccnc4[nH]ccc34)[nH]n2)CC1`: the inhibition is 56% in assay [1] and 61% in assay [2]. The values for the IC50 in assay [3] and in assay [4] were 553 nM and 791 nM, respectively.
For `COc1cc(C(=O)N2CCC(c3cc(-c4ccnc5[nH]ccc45)[nH]n3)CC2)cc(OC)c1OC` the same measures were 60.8%, 74.4%, 1450 nM and 1490 nM.
In the case of `O=S(=O)(F)N1CCC(c2cc(-c3ccnc4[nH]ccc34)[nH]n2)CC1`, the inhibition in assay [1] turned out to be 68.3%; in assay [2], 86.7%. Moreover, the IC50 in assay [3] was 329 nM; in assay [4], 229 nM.
For `Cc1ccc(C(=O)N2CCC(c3cc(-c4ccnc5[nH]ccc45)[nH]n3)CC2)cc1` the same measures were 74.4%, 52.2%, 484 nM and 773 nM.
For `O=C(c1ccc(F)cc1)N1CCC(c2cc(-c3ccnc4[nH]ccc34)[nH]n2)CC1` the same measures were 61.1%, 47.4%, 833 nM and 821 nM.
For `O=C(Cc1ccccc1)N1CCC(c2cc(-c3ccnc4[nH]ccc34)[nH]n2)CC1` the same measures were 49.7%, 72.2%, 433 nM and 432 nM.
Take `CCS(=O)(=O)N1CCC(c2cc(-c3ccnc4[nH]ccc34)[nH]n2)CC1`: the inhibition in assay [1] was 16%; in assay [2], 22.4%. Also, the values for the 50% inhibitory concentration (IC50) in assay [3] and in assay [4] were 158 nM and 286 nM, respectively.
For `O=C(c1cccc(F)c1)N1CCC(c2cc(-c3ccnc4[nH]ccc34)[nH]n2)CC1` the same measures were 66.6%, 52.1%, 542 nM and 842 nM.
Consider `Cc1ccc(S(=O)(=O)N2CCC(c3cc(-c4ccnc5[nH]ccc45)[nH]n3)CC2)cc1`, for which the inhibition came out at 6.4% in assay [1] and 6.9% in assay [2]. Further, the half-maximal inhibitory concentration (IC50) in assay [3] and in assay [4] was over 10000 nM throughout.
On to `COc1ccc(CC(=O)N2CCC(c3cc(-c4ccnc5[nH]ccc45)[nH]n3)CC2)cc1`, for which the inhibition in assay [1] was 8.8%; in assay [2] it was 4.2%. Moreover, the IC50 in assay [3] was 486 nM; in assay [4], 813 nM.
For `O=C(C1CCCC1)N1CCC(c2cc(-c3ccnc4[nH]ccc34)[nH]n2)CC1` the same measures were 47.5%, 44.4%, 3880 nM and 1980 nM.
For `COc1ccc(C(=O)N2CCC(c3cc(-c4ccnc5[nH]ccc45)[nH]n3)CC2)cc1` the same measures were 75.3%, 54.7%, 492 nM and 829 nM.
For `Fc1ccc(CN2CCC(c3cc(-c4ccnc5[nH]ccc45)[nH]n3)CC2)cc1F` the same measures were 71.1%, 78.8%, 295 nM and 425 nM.
Take `CC(=O)c1cccc(CN2CCC(c3cc(-c4ccnc5[nH]ccc45)[nH]n3)CC2)c1`: the inhibition in assay [1] came to 69.2%; in assay [2] it was 89%. Moreover, the figures for the concentration for half-maximal inhibition (IC50) in assay [3] and in assay [4] were 823 nM and 895 nM, respectively.
For `O=C(C1CCCCC1)N1CCC(c2cc(-c3ccnc4[nH]ccc34)[nH]n2)CC1` the same measures were 20.8%, 14.6%, 2110 nM and 1720 nM.
For `O=C(C1CC1)N1CCC(c2cc(-c3ccnc4[nH]ccc34)[nH]n2)CC1` the same measures were 40.9%, 42.5%, 1070 nM and 1010 nM.
For the compound `O=C(CC1CC1)N1CCC(c2cc(-c3ccnc4[nH]ccc34)[nH]n2)CC1`, the values for the inhibition in assay [1] and in assay [2] were 39.3% and 46.5%, respectively. For the same compound, the IC50 was determined as 787 nM in assay [3] and 1180 nM in assay [4].
For `COc1ccc(C(=O)N2CCC(c3cc(-c4ccnc5[nH]ccc45)[nH]n3)CC2)cc1OC` the same measures were 73%, 59.7%, 362 nM and 696 nM.
For `FC(F)(F)c1cccc(CN2CCC(c3cc(-c4ccnc5[nH]ccc45)[nH]n3)CC2)c1` the same measures were 50.9%, 57.2%, 969 nM and 1180 nM.
Consider `Cc1ccc(CN2CCC(c3cc(-c4ccnc5[nH]ccc45)[nH]n3)CC2)cc1`, for which the inhibition in assay [1] came to 76%; in assay [2], 82.2%. Besides, the IC50 in assay [3] and in assay [4] was over 5000 nM throughout.
`O=C(c1ccc(Cl)cc1)N1CCC(c2cc(-c3ccnc4[nH]ccc34)[nH]n2)CC1`: the inhibition is 82.2% in assay [1] and 58.4% in assay [2]. In addition, the IC50 in assay [3] was found to be 369 nM; in assay [4], 899 nM.
Turning to `O=C(c1ccc([N+](=O)[O-])cc1)N1CCC(c2cc(-c3ccnc4[nH]ccc34)[nH]n2)CC1`, the inhibition came to 78.6% in assay [1] and 63.5% in assay [2]. For the same compound, the values for the half-maximal inhibitory concentration (IC50) in assay [3] and in assay [4] were 699 nM and 823 nM, respectively.
